Experimental data published in EP4813403A1, “USE OF GLP-1R/GIPR DOUBLE-TARGET AGONIST IN PREPARING ANIMAL DRUG” (Hangzhou Zhongmeihuadong Pharmaceutical Co., Ltd., priority 2023, dated 2025).

What was measured:
cat GLP-1R = assay: Agonistic activity on GLP-1R of different species (LANCE Ultra cAMP assay): cat; type: cell-based; details: ratio of EC50 value of other species to human EC50 value
Method: CHO-K1 cells were seeded in a 6-well plate at 0.6×10^6 cells/well and incubated overnight in an incubator at a temperature of 37 °C and a carbon dioxide concentration of 5%. The next day, CHO-K1 cell media were replaced. Then two tubes A and B were prepared for each plasmid. 100 µL Opti-MEM was added to tube A, then 4 µL Lipofectamine™ 3000 was added and mixed uniformly. 100 µL Opti-MEM was firstly added to tube B, then 2 µg of one of the plasmids (human GLP-1R-pcDNA5 (+) plasmid, cat GLP-1R-pcDNA5 (+) plasmid, human GIPR-pcDNA5 (+) plasmid, cat GIPR-pcDNA5 (+) plasmid) was added and mixed uniformly, and 4 µL P3000™ was added to tube B and mixed uniformly (the ratio of plasmid to transfection reagent was 1 µg: 2 µL). The diluted solution in tube A was added to the diluted solution in tube B, mixed evenly, and incubated at room temperature for 15 minutes. […]
18-20 hours after transfection, human GLP-1R-CHO, cat GLP-1R-CHO, human GIPR-CHO, cat GIPR-CHO cells were resuspended in 1×Casein Stimulation Buffer (HBSS, 5 mM HEPES, 0.5 mM IBMX, 0.1% casein, pH7.4), and seeded into a 384-well cell culture plate at 9 µL/well (cell numbers being 2000, 2000, 1000, 2000 cells/well, respectively). […] The readings at 665 nm and 620 nm were determined with a 330 nm excitation light on a microplate reader. The 665 nm/620 nm reading ratio was calculated. […]

DIO mice = assay: Weight loss effect in DIO mice obesity model; type: in vivo; set-up: Cumulative food intake / Fasting blood glucose / Insulin / Serum TC / ALT: unit not given here; details: for Insulin resistance index / Serum TC / Fasting blood glucose / Insulin / Body weight / Cumulative food intake / Liver Weight / ALT: Mean±SEM, 10 mice; for Insulin: D30 serum; for Body weight / Cumulative food intake / Liver Weight / Total abdominal fat: s.c. once every 3 days for 4 weeks; for Total abdominal fat: sum of perirenal and paratesticular fat; for ALT: serum
Method: In this study, 26-week-old male DIO mice were used. DIO mice were housed in appropriate cages. DIO mice were housed in an environment-monitored and well-ventilated SPF-grade animal room, with the temperature maintained between 20 and 26°C and relative humidity between 40% and 70%. […] The mice received food and water ad libitum. […] The mice were subcutaneously administrated once every 3 days for 4 consecutive weeks. […] Food intake was measured once daily after administration. RBG was measured before grouping and at 48 h after each administration. After fasted for 5 h on D30 (no water deprivation was required), FBG and glycated hemoglobin A1c (HbA1c) were detected, and blood was collected intravenously to separate the serum. A mouse insulin ELISA kit was used to detect the insulin content in the serum, and a biochemistry analyser was used to detect total cholesterol (TC), TG, low-density lipoprotein cholesterol (LDL), high-density lipoprotein cholesterol (HDL), free fatty acid (FFA), ALT, and aspartate aminotransferase (AST) content. The liver was collected, the perirenal and paratesticular fat tissues were separated and weighed, the organ-body ratio was calculated. The liver was stained with HE and Oil Red O for pathological scoring. The data results were statistically analyzed using one-way analysis of variance (ANOVA). A Levene's test was performed to test for variance homogeneity. If the result was homogeneous (P>0.05), a one-way analysis of variance (ANOVA) would be performed. […] In the case of heterogeneity of variance (P ≤0.05 ), a Dunnett's T3 test would be performed. Results were expressed as mean and standard deviation (Mean ± SEM). The test level was 0.05. Both statistical significance and biological significance were considered when analyzing the results.

[1] = 0.3 nmol/kg s.c. once every 3 days
[2] = 1 nmol/kg s.c. once every 3 days
[3] = 3 nmol/kg s.c. once every 3 days
[4] = 30 nmol/kg s.c. once every 3 days

CC[C@H](C)[C@H](NC(=O)C(C)(C)NC(=O)[C@H](Cc1ccc(O)cc1)NC(=O)[C@H](CC(=O)O)NC(=O)[C@H](CO)NC(=O)[C@@H](NC(=O)C(C)(Cc1ccccc1)NC(=O)[C@@H](NC(=O)CNC(=O)[C@H](CCC(=O)O)NC(=O)C(C)(C)NC(=O)[C@@H](N)Cc1ccc(O)cc1)[C@@H](C)O)[C@@H](C)O)C(=O)NC(C)(C)C(=O)N[C@@H](CC(C)C)C(=O)N[C@@H](CC(=O)O)C(=O)N[C@@H](CCCCN)C(=O)N[C@@H](CCC(N)=O)C(=O)N[C@@H](C)C(=O)N[C@@H](CCC(N)=O)C(=O)N[C@@H](C)C(=O)N[C@@H](CCC(=O)O)C(=O)N[C@@H](Cc1ccccc1)C(=O)N[C@H](C(=O)N[C@@H](CCCCNC(=O)COCCOCCNC(=O)COCCOCCNC(=O)COCCOCCNC(=O)CC[C@H](NC(=O)CCCCCCCCCCCCCCCCCCCCC(=O)O)C(=O)O)C(=O)N[C@@H](Cc1c[nH]c2ccccc12)C(=O)N[C@@H](CC(C)C)C(=O)N[C@@H](CC(C)C)C(=O)N[C@@H](CCCCN)C(=O)NCC(=O)NCC(=O)N1CCC[C@H]1C(=O)N[C@@H](CO)C(=O)N[C@@H](CO)C(=O)NCC(=O)N[C@@H](C)C(=O)N1CCC[C@H]1C(=O)N1CCC[C@H]1C(=O)N1CCC[C@H]1C(=O)N[C@@H](CO)C(=O)N[C@@H](CCCCN)C(N)=O)C(C)C (stereo partly shown) [Compound P016]
GLP-1R EC50 ratio (cat GLP-1R): 2.98 | Insulin resistance index (DIO mice; [1]): 43.94±6.288 | Serum TC (DIO mice; [1]): 4.07±0.26 | Insulin resistance index (DIO mice; [2]): 21.532±3.705 | Serum TC (DIO mice; [2]): 3.26±0.20 | Insulin resistance index (DIO mice; [3]): 11.991±1.907 | Serum TC (DIO mice; [3]): 2.61±0.13 | Insulin resistance index (DIO mice; [4]): 5.179±1.178 | Serum TC (DIO mice; [4]): 2.50±0.18 | Fasting blood glucose (DIO mice; D30, 0.3 nmol/kg s.c. once every 3 days): 13.78±0.39 | Fasting blood glucose (DIO mice; D30, 1 nmol/kg s.c. once every 3 days): 11.23±0.40 | Fasting blood glucose (DIO mice; D30, 3 nmol/kg s.c. once every 3 days): 10.36±0.67 | Fasting blood glucose (DIO mice; D30, 30 nmol/kg s.c. once every 3 days): 8.39±0.30 | Insulin (DIO mice; [1]): 3.285±0.481 | Insulin (DIO mice; [2]): 1.911±0.29 | Insulin (DIO mice; [3]): 1.196±0.185 | Insulin (DIO mice; [4]): 0.624±0.130 | Body weight (DIO mice; 0.3 nmol/kg): 45.4 ± 1.3 g | Cumulative food intake (DIO mice; 0.3 nmol/kg): 75.75±2.81 | Liver Weight (DIO mice; 0.3 nmol/kg): 1.552 ± 0.106 g | Total abdominal fat (DIO mice; 0.3 nmol/kg): 2.631 ± 0.069 g | Body weight (DIO mice; 1 nmol/kg): 38.3 ± 1.1 g | Cumulative food intake (DIO mice; 1 nmol/kg): 61.40±1.58 | Liver Weight (DIO mice; 1 nmol/kg): 1.191 ± 0.075 g | Total abdominal fat (DIO mice; 1 nmol/kg): 1.849 ± 0.181 g | Body weight (DIO mice; 3 nmol/kg): 34.1 ± 0.7 g | Cumulative food intake (DIO mice; 3 nmol/kg): 55.47±2.72 | Liver Weight (DIO mice; 3 nmol/kg): 1.069 ± 0.029 g | Total abdominal fat (DIO mice; 3 nmol/kg): 0.972 ± 0.076 g | Body weight (DIO mice; 30 nmol/kg): 29 ± 0.7 g | Cumulative food intake (DIO mice; 30 nmol/kg): 48.38±2.31 | Liver Weight (DIO mice; 30 nmol/kg): 0.995 ± 0.029 g | Total abdominal fat (DIO mice; 30 nmol/kg): 0.461 ± 0.034 g | ALT (DIO mice; [1]): 95.60±14.09 | ALT (DIO mice; [2]): 43.90±3.86 | ALT (DIO mice; [3]): 52.80±9.62 | ALT (DIO mice; [4]): 49.60±5.67
